Read-outs that look alike come from different tables or passages of the source.
How the values were obtained:
MCT8 [1] = target: T1, MCT8 (Rattus norvegicus, UniProt Q8K1P8, G227D/I169T/S199P/T171I); test: Transport (uptake) of radioactive ligands by MCT8 expressed in X. laevis oocytes; format: cell-based; set-up: the stop codon of MCT8 was removed by performing PCR using the same sense primer as above; expressed in transfected cells; host or cells: Xenopus laevis oocytes injected with cRNA transcribed from pGEM-HeJuel; conditions: 0.23 ng MCT8 cRNA injected; 10 nM ligand, 2 min, 25 C
T1 sequence (Q8K1P8 whole entry I169T/T171I/S199P/G227D): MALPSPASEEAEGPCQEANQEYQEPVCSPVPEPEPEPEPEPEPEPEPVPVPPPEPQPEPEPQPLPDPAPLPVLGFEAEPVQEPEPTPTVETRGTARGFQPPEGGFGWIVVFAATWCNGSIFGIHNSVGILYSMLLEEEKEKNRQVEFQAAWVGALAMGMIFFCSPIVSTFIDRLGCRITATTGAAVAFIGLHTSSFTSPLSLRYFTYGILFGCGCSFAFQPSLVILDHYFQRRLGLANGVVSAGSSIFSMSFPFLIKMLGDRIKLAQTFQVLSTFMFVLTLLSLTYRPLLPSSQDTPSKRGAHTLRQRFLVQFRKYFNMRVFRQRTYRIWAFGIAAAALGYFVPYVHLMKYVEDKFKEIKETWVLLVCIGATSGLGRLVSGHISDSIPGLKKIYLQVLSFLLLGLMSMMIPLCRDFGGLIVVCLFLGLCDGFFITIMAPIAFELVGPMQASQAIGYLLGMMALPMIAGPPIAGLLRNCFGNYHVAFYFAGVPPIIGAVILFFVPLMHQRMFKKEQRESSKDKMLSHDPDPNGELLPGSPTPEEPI

MCT8 [2] = target: T1, MCT8; test: Inhibition of uptake of labeled T4 and T3 in MCT8 cRNA-injected oocytes by putative competitors; format: cell-based; set-up: the stop codon of MCT8 was removed by performing PCR using the same sense primer as above; expressed in transfected cells; host or cells: Xenopus laevis oocytes injected with cRNA transcribed from pGEM-HeJuel
Method: (§1) Oocytes were isolated and allowed to recover overnight at 18 C in modified Barth's solution containing 20 IU/ml penicillin and 20 gg/ml streptomycin as described before (23). […] Uninjected or water injected oocytes were used as controls.
Transport measurements in oocytes—Oocytes were washed and preincubated at 18 C in standard uptake solution (100 mM NaCl, 2 mM KCl, 1 mM CaCl2, 1 mM MgCl2, 10 mM HEPES, and 10 mM Tris, pH 7.5). […] The possible Na^+ dependence of transport was tested by preincubation and incubation in Na^+-free uptake solution in which NaCl was replaced by choline chloride. The influence of the temperature on the uptake rate was tested by the incubation of oocytes with uptake solutions at different temperatures between 4 and 37 C. […] The incubation was stopped by aspiration of the medium, and oocytes were washed 4 times at 4 C with standard uptake solution containing 0.1% BSA.

rat MCT1 = target: T2, rat MCT1 (Rattus norvegicus, UniProt P53987); conditions: data not shown
T2 sequence (P53987 1-494): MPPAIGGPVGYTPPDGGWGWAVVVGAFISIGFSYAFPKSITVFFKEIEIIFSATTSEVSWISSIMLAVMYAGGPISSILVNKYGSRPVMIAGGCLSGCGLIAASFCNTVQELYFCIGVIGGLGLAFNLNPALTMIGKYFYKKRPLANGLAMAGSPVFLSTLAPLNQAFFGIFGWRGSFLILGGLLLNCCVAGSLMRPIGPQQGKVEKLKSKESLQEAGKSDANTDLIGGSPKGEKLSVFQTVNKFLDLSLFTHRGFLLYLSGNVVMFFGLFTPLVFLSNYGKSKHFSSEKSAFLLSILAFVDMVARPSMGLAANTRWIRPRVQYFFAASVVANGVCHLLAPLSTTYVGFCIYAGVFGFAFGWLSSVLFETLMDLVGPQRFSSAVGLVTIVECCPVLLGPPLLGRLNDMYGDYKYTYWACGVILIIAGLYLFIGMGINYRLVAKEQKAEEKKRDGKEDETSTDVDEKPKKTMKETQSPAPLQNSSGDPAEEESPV

MCT8 [3] = target: T1, MCT8; test: Transport (uptake) of radioactive ligands by MCT8 expressed in X. laevis oocytes; format: cell-based; set-up: the stop codon of MCT8 was removed by performing PCR using the same sense primer as above; expressed in transfected cells; host or cells: Xenopus laevis oocytes injected with cRNA transcribed from pGEM-HeJuel
Method: Xenopus oocytes were isolated and injected with 4.6 ng rat MCTS cRNA. After 3 days, groups of 10 injected or uninjected oocytes were incubated for 60 mm at 25 C with 10 nM radioactive iodothyronines in 0.1 ml medium. Uptake of iodothyronines was determined as previously described (18).
as §1
Transport measurements in oocytes—Oocytes were washed and preincubated at 18 C in standard uptake solution (100 mM NaCl, 2 mM KCl, 1 mM CaCl2, 1 mM MgCl2, 10 mM HEPES, and 10 mM Tris, pH 7.5). Usually, transport was tested by incubation of groups of 5-10 oocytes for 2-60 mm at 25 C with 10 nM [1251]iodothyronines or 10 μM [3H]amino acids in 0.1 ml standard uptake solution. The possible Na^+ dependence of transport was tested by preincubation and incubation in Na^+-free uptake solution in which NaCl was replaced by choline chloride. The influence of the temperature on the uptake rate was tested by the incubation of oocytes with uptake solutions at different temperatures between 4 and 37 C. […] The incubation was stopped by aspiration of the medium, and oocytes were washed 4 times at 4 C with standard uptake solution containing 0.1% BSA.

MCT8 [4] = target: T1, MCT8; test: Transport kinetics of MCT8-mediated iodothyronine uptake in oocytes (Michaelis-Menten); set-up: dose or concentration left out as unconfirmed; conditions: net transport
Method: Apparent Km values were calculated by fitting the plot of uptake rate (v) versus ligand concentration (5) to the Michaelis Menten equation: v=Vmax/(1+Km/S), wherein Vmax is the maximum uptake rate, and Km the Michaelis constant. Calculations were performed using the Slide Write Plus program version 5.01 (Advanced Graphics Software).

## N[C@@H](Cc1cc(I)c(Oc2cc(I)c(O)c(I)c2)c(I)c1)C(=O)O [T4, 3,3′,5,5′-tetraiodothyronine]
MCT8 [1]
  Increase in transport at lowest amount of MCT8 cRNA: 7.3 fold
MCT8 [2]; labeled T4 10 nm, inhibitor 10 μM, MCT8 cRNA-injected oocytes, read-out: % inhibition ± SEM of uptake of T4
  inhibition at 10 µM: 69 ± 7%
MCT8 [2]; read-out: % inhibition ± SEM of uptake of T3
  inhibition at 10 µM: 26 ± 7%
MCT8 [2]; unlabeled competitor, taurocholate and probenecid data not shown
  Inhibition of labeled T4 and T3 uptake by MCT8 (in words): potently inhibited
Rat MCT1
  Transport in rat MCT1 cRNA-injected oocytes compared to control oocytes (in words): no additional uptake
MCT8 [3]; 10 nM iodothyronines or amino acids, MCT8 cRNA-injected vs uninjected oocytes
  Substrate specificity: transport by MCT8 (in words): rapid uptake
MCT8 [3]; 10 nM, 2 min, 4 C, marked increases at 15, 25 and 37 C
  Uptake into oocytes at 4 C (in words): significant uptake
MCT8 [3]; NaCl replaced by choline chloride
  Na+ dependence of transport by MCT8: modest but consistent inhibition
MCT8 [3]; oocytes injected with 4.6 ng MCT8 cRNA, 10 nM ligand, 25 C
  Increase in initial uptake compared with uninjected oocytes: ~10 fold
MCT8 [4]
  Saturability of transport by MCT8: saturable
